# Reference: patent US20210403874A1, “Method for Producing Stem/Precursor Cells, By Using Low Molecular Weight Compound, From Cells Derived From Endodermal Tissue or Organ” (Evia Life Sciences Inc., priority 2018, published 2021)
# Test system: pancreatic progenitor cells
# Assay: Induction of differentiation from pancreatic progenitor cells into insulin-producing cells (floating culture)
# Type: cell-based
# Conditions: floating culture 7 days in the presence of YAC together with ALK5 inhibitor II, versus YAC; FIG. 6
# Experimental: Total RNA was isolated from the pancreatic exocrine cells and PSC cells using miRNeasy Mini Kit (QIAGEN). Reverse transcription reaction was carried out using High-Capacity cDNA Reverse Transcription Kit (Life Technologies) following the manufacturer's guideline. The resulting cDNA was used as a template to perform PCR with Platinum SYBR Green qPCR SuperMix UDG (Invitrogen). The expression level of the target gene was normalized with β-actin as the endogenous control.
# The cells were fixed with 4% paraformaldehyde for 15 minutes. The resultant was incubated with a blocking solution (Blocking One) (Nacalai Tesque, Kyoto) at 4° C. for 30 minutes, and then the cells were incubated with primary antibody at room temperature for an hour or at 4° C. overnight. Then, Alexa Fluor 488- or Alexa Fluor 594-labeled secondary antibody (Life Technologies) was used to detect the primary antibody. The nuclei were co-stained with Hoechst 33342 (Dojindo).
# The cells were suspended in 5% FBS-containing SHM+YAC (cell density: 1×10^4 to 1×10^6 cells/cm') and cultured on an ultra-low adsorption culture dish for 7 days. The medium was exchanged on the fourth day.
smiles,measurement,value
Cc1cccc(-c2[nH]ncc2-c2ccc3ncccc3n2)n1 [ALK5 inhibitor II],mRNA expression of Insulin and GLUT2,further improvements
